Measured values taken from US20240174618A1, “SUBSTITUTED (2-HETEROARYLOXYPHENYL)SULFONATES, SALTS THEREOF AND THEIR USE AS HERBICIDAL AGENTS” (Bayer Aktiengesellschaft, priority 2021, published 2024).

Key:
Assay type in all cases: in vivo
[1] = tested on: Zea mays (ZEAMX); assay: D. Pre-emergence effect on useful plants, ZEAMX; conditions: useful plant
Source text: (§1) Seeds of monocotyledonous and dicotyledonous weed plants and crop plants were placed in plastic or organic planting pots and covered with soil. The compounds of the invention, formulated in the form of wettable powders (WP) or as emulsion concentrates (EC), were then applied to the surface of the covering soil as aqueous suspension or emulsion with addition of 0.5% additive at a water application rate equivalent to 600 l/ha (converted). After the treatment, the pots were placed in a greenhouse and kept under good growth conditions for the test plants. After about 3 weeks, the efficacy of the preparations was scored visually in comparison with untreated controls as percentages. For example, • 100% efficacy=plants have died, • 0% efficacy=like untreated control plants.
(§2) Tables D1a to D5b below show the effects of selected compounds of the general formula (I) according to table 1 on various useful plants at an application rate corresponding to 320 g/ha or less, which were obtained by the experimental procedure mentioned above.

[2] = tested on: Amaranthus retroflexus (AMARE); assay: C. Herbicidal pre-emergence efficacy, AMARE; conditions: scored after about 3 weeks
Source text: as §1
(§3) Tables C1a to C14b below show the effects of selected compounds of the general formula (I) according to table 1 on various harmful plants at an application rate corresponding to 320 g/ha or less, which were obtained by the experimental procedure mentioned above.

[3] = tested on: Kochia scoparia (KCHSC); assay: E. Herbicidal post-emergence efficacy, KCHSC
Procedure: (§4) Seeds of monocotyledonous and dicotyledonous weeds and crop plants were placed in sandy loam in plastic or organic planting pots, covered with soil and cultivated in a greenhouse under controlled growth conditions. 2 to 3 weeks after sowing, the test plants were treated at the one-leaf stage. The compounds of the invention, formulated in the form of wettable powders (WP) or as emulsion concentrates (EC), were then sprayed onto the green parts of the plants as aqueous suspension or emulsion with addition of 0.5% additive at a water application rate of 600 l/ha (converted). After the test plants had been kept in the greenhouse under optimum growth conditions for about 3 weeks, the activity of the preparations was rated visually in comparison to untreated controls.
(§5) For example, • 100% efficacy=plants have died, • 0% action=like untreated control plants.
(§6) Tables E1a to E12b below show the effects of selected compounds of the general formula (I) according to table 1 on various harmful plants at an application rate corresponding to 320 g/ha or less, which were obtained by the experimental procedure mentioned above.

[4] = tested on: Veronica persica (VERPE); assay: E. Herbicidal post-emergence efficacy, VERPE
Procedure: as §4, §5, §6

[5] = tested on: Zea mays (ZEAMX); assay: F. Post-emergence effect on useful plants, ZEAMX; conditions: useful plant
Procedure: as §4, §5
(§7) Tables F1a to F4 below show the effects of selected compounds of the general formula (I) according to table 1 on various useful plants at an application rate corresponding to 320 g/ha or less, which were obtained by the experimental procedure mentioned above.

[6] = tested on: Viola tricolor (VIOTR); assay: E. Herbicidal post-emergence efficacy, VIOTR
Procedure: as §4, §5, §6

[7] = tested on: Triticum aestivum (TRZAS); assay: F. Post-emergence effect on useful plants, TRZAS; conditions: useful plant
Procedure: as §4, §5, §7

[8] = tested on: Triticum aestivum (TRZAS); assay: D. Pre-emergence effect on useful plants, TRZAS; conditions: useful plant
Source text: as §1, §2

[9] = tested on: Amaranthus retroflexus (AMARE); assay: E. Herbicidal post-emergence efficacy, AMARE
Procedure: as §4, §5, §6

[10] = tested on: Echinochloa crus-galli (ECHCG); assay: C. Herbicidal pre-emergence efficacy, ECHCG; conditions: 320 g/ha, scored after about 3 weeks
Source text: as §1, §3

[11] = tested on: Lolium rigidum (LOLRI); assay: C. Herbicidal pre-emergence efficacy, LOLRI; conditions: 320 g/ha, scored after about 3 weeks
Source text: as §1, §3

[12] = tested on: Digitaria sanguinalis (DIGSA); assay: C. Herbicidal pre-emergence efficacy, DIGSA; conditions: scored after about 3 weeks
Source text: as §1, §3

[13] = tested on: Echinochloa crus-galli (ECHCG); assay: E. Herbicidal post-emergence efficacy, ECHCG; conditions: application rate 320 g/ha
Procedure: as §4, §5, §6

[14] = tested on: Viola tricolor (VIOTR); assay: C. Herbicidal pre-emergence efficacy, VIOTR
Source text: as §1, §3

[15] = tested on: Kochia scoparia (KCHSC); assay: C. Herbicidal pre-emergence efficacy, KCHSC; conditions: application rate 320 g/ha
Source text: as §1, §3

[16] = tested on: Setaria viridis (SETVI); assay: C. Herbicidal pre-emergence efficacy, SETVI; conditions: 320 g/ha, scored after about 3 weeks
Source text: as §1, §3

[17] = tested on: Abutilon theophrasti (ABUTH); assay: E. Herbicidal post-emergence efficacy, ABUTH; conditions: application rate 320 g/ha
Procedure: as §4, §5, §6

[18] = tested on: Pharbitis purpurea (PHBPU); assay: E. Herbicidal post-emergence efficacy, PHBPU; conditions: application rate 320 g/ha
Procedure: as §4, §5, §6

[19] = tested on: Veronica persica (VERPE); assay: C. Herbicidal pre-emergence efficacy, VERPE; conditions: 320 g/ha, scored after about 3 weeks
Source text: as §1, §3

| Structure (SMILES) | Pre-emergence efficacy against ZEAMX in % ([1]; application rate 80 g/ha) | Pre-emergence efficacy against AMARE ([2]; 320 g/ha) | Post-emergence efficacy against KCHSC in % ([3]; application rate 320 g/ha) | Post-emergence efficacy against VERPE in % ([4]; application rate 80 g/ha) | Post-emergence efficacy against VERPE in % ([4]; application rate 320 g/ha) | Post-emergence efficacy against ZEAMX in % ([5]; application rate 80 g/ha) | Post-emergence efficacy against ZEAMX in % ([5]; application rate 320 g/ha) | Post-emergence efficacy against VIOTR in % ([6]; application rate 320 g/ha) | Post-emergence efficacy against TRZAS in % ([7]; application rate 80 g/ha) | Post-emergence efficacy against TRZAS in % ([7]; application rate 320 g/ha) | Post-emergence efficacy against AMARE in % ([9]; application rate 80 g/ha) | Post-emergence efficacy against AMARE in % ([9]; application rate 320 g/ha) | other results |
| --- | --- | --- | --- | --- | --- | --- | --- | --- | --- | --- | --- | --- | --- |
| N#Cc1cccc(Oc2ncc(Cl)cn2)c1OS(=O)(=O)CCC(F)(F)F [Example I-82] | 0% | 80% | 90% | 100% | 100% | 0% | 20% | 80% | 0% | 0% | 90% | 100% | Post-emergence efficacy against KCHSC in % ([3]; application rate 80 g/ha): 90%; Post-emergence efficacy against VIOTR in % ([6]; application rate 80 g/ha): 80%; Pre-emergence efficacy against TRZAS in % ([8]; application rate 80 g/ha): 0%; Pre-emergence efficacy against TRZAS in % ([8]; application rate 320 g/ha): 0% |
| Cc1cccc(Oc2ncc(Cl)cn2)c1OS(=O)(=O)CC=C(Cl)Cl [Example I-83] | 0% | 100% | 80% | 80% | 100% | 10% | 20% | 100% | 0% | 20% | 90% | 100% | Pre-emergence efficacy against ZEAMX in % ([1]; application rate 320 g/ha): 0%; Pre-emergence efficacy against AMARE ([2]; 80 g/ha): 80%; Pre-emergence efficacy against ECHCG [10]: 90%; Pre-emergence efficacy against LOLRI [11]: 80%; Pre-emergence efficacy against DIGSA ([12]; 80 g/ha): 80%; Pre-emergence efficacy against DIGSA ([12]; 320 g/ha): 100%; Post-emergence efficacy against ECHCG in % [13]: 80%; Pre-emergence efficacy against VIOTR in % ([14]; application rate 80 g/ha): 90%; Pre-emergence efficacy against VIOTR in % ([14]; application rate 320 g/ha): 100%; Pre-emergence efficacy against KCHSC in % [15]: 80%; Pre-emergence efficacy against SETVI [16]: 100%; Post-emergence efficacy against ABUTH in % [17]: 80%; Post-emergence efficacy against PHBPU in % [18]: 100%; Pre-emergence efficacy against VERPE [19]: 90% |
